# Test results reported in patent US9078874B2, “Composition and method for treating cognitive impairments in down syndrom subjects” (Centre National De La Recherche Scientifique—CNRS, priority 2009, dated 2015).
# Like-named read-outs stand apart in the source and are kept apart here.
# Key:
# euploid and Ts65Dn mice [1] = experiment: Pro-convulsant effects after pentylenetetrazol (45 mg/kg); assay type: in vivo; conditions: mouse, in vivo, 50 min
# Experimental: For testing the pro-convulsant effects of α5IA, a sub-convulsant dose of pentylenetetrazole (45 mg/kg i.p.) that induces myoclonic convulsions in about 50% of mice was injected i.p. 20 min after injection of α5IA (50 mg/kg) or placebo.
# The proconvulsant action of the α5IA was measured after injection of a subconvulsive dose of pentylenetetrazole. Mice were injected with either vehicle or the α5IA (50 mg/kg i.p) and 20 min later they received an intraperitoneal injection of 45 mg/kg of pentylenetetrazole. […] Six to 7 mice were used for each condition. The latency to the first myoclonic jerk episode and the convulsion grade were recorded during a 1200-s period of observation. Four grades were empirically determined: Grade 0: no effect; grade 1: tail up and curved; grade 2: reversed tail and convulsive shivers; grade 3: myoclonic convulsions.
# We then tested the proconvulsant effect of α5IA by injecting it (50 mg/kg) 20 min before a sub-convulsant dose of pentylenetetrazol (45 mg/kg) that induces myoclonic convulsions in about 50% of mice.
# euploid and Ts65Dn mice [2] = experiment: Anxiety-related behavior in the elevated plus maze; assay type: in vivo; conditions: for Time spent in the open arms of the elevated plus-maze: acute, one single 15 mg/kg i.p. injection
# Experimental: FIG. 6 depicts results from an anxiety-related behavior study of α5IA. Anxiety was assessed in the elevated plus maze, in both euploid and Ts65Dn mice under placebo or α5IA. Time spent in the open arms of the elevated plus-maze was taken as a measure of anxiety levels.
# Modulation of anxiety-related behaviors by α5IA was more precisely assessed using an elevated-plus maze, in a total of 42 mice, 30 min after i.p. injections (placebo: 11 euploid and 7 Ts65Dn mice; α5IA (15 mg/kg): 14 euploid and 10 Ts65Dn mice). The maze was constructed of black perspex (length, 28 cm; width, 5 cm; height from floor, 40 cm; overall luminosity in open arms: 70 1×) with two opposing open arms, and two enclosed arms equipped with three 16 cm high walls. Mice were placed in the central region of the maze and behavior was recorded for a 5 min period using the Any. Maze software that automatically calculates the time spent in the different parts of the maze (e.g., open and enclosed arms).
# To explore the potential adversity of chronic injections of α5IA (5 mg/kg), another group of euploid mice was treated for two weeks (5 injections/week; 5 α5IA treated mice; 5 placebo-treated mice). After repeated treatment, these mice were evaluated in the elevated plus maze as described above.
# euploid and Ts65Dn mice [3] = experiment: Morris water maze (MWM) spatial reference memory; assay type: in vivo
# Experimental: Spatial reference memory was evaluated using the standard Morris water maze task. The maze was similar to the one described above (dose-response effects of α5IA). The platform was submerged 1 cm below water surface in the center of one of the pool quadrants. During spatial allocentric training the non-visible platform remained at a constant position throughout the trials with numerous external visual indices available to facilitate formation of spatial cognitive maps.
# A total of 32 mice (16 euploid and 16 Ts65Dn mice) were used. Animals were randomly and equally distributed into 4 groups. Each day mice were injected with placebo or α5IA (5 mg/kg) 30 min before the onset of behavioral testing.
# On the first day, mice were submitted to a single habituation trial with the non-visible platform available. On the following six days, spatial allocentric training consisted in daily sessions (2 trials per session). Start positions varied pseudo-randomly among the four cardinal points. Mean inter-trial interval was 2 hours. During the habituation and spatial training phases each trial ended when the animal reached the platform. A 90 sec cut-off was used, after which mice were manually guided to the platform. Once on the platform, animals were given a 20 sec rest before being replaced in their cage. Twenty-four hours after the last training session, a probe trial was performed (Day 8) during which the platform was removed and mice allowed to freely navigate for 60 sec.
# Following evaluation of spatial learning and memory skills, visual ability of mice was controlled using a non-spatial training procedure. Platform location was directly cued by a white styrene ball placed 12 cm above water surface and access to external indices was prevented by a black curtain surrounding the pool. Testing in this visually guided navigation task consisted of 4 daily sessions for 4 consecutive days as described above.
# All data were collected, analyzed and stored using a video-tracking system (Ethovision, Noldus, Wageningen, The Netherlands).
# During probe trial one supplementary (euploid) mouse was removed from analysis for the same reason.
# [4] = target: GABAA receptors α1, α2, α3 and α5 subtypes (Homo sapiens, UniProt P31644); conditions: α5 subtype; cited from earlier work
# Chain of GABAA receptors α1, α2, α3 and α5 subtypes (Homo sapiens, UniProt P31644) (P31644 32-462): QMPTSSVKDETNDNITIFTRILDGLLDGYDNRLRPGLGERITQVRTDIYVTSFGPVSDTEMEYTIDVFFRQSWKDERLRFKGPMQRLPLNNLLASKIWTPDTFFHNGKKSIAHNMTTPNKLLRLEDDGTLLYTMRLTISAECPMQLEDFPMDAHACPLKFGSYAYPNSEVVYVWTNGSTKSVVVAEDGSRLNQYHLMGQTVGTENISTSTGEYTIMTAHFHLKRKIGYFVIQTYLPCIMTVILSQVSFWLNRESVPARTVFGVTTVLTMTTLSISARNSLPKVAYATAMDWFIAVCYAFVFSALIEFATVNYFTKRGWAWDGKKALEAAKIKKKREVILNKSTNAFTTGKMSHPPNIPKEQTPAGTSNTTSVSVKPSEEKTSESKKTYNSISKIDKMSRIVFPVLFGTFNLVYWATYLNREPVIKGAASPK
# Chain of GABAA receptors α1, α2, α3 and α5 subtypes (Homo sapiens, UniProt P31644) (P28472 26-473 partner): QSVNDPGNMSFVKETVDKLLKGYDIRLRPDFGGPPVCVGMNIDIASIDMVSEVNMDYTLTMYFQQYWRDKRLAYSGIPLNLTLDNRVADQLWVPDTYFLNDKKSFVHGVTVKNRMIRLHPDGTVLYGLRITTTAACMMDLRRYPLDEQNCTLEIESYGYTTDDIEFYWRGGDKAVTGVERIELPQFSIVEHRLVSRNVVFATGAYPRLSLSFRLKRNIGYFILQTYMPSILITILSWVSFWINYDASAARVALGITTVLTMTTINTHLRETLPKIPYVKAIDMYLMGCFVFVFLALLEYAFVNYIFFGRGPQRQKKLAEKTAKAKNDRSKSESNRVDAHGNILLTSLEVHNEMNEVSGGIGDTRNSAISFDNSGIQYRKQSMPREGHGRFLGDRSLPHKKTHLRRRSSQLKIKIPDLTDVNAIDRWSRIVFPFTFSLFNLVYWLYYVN
# Chain of GABAA receptors α1, α2, α3 and α5 subtypes (Homo sapiens, UniProt P31644) (P18507 40-475 partner): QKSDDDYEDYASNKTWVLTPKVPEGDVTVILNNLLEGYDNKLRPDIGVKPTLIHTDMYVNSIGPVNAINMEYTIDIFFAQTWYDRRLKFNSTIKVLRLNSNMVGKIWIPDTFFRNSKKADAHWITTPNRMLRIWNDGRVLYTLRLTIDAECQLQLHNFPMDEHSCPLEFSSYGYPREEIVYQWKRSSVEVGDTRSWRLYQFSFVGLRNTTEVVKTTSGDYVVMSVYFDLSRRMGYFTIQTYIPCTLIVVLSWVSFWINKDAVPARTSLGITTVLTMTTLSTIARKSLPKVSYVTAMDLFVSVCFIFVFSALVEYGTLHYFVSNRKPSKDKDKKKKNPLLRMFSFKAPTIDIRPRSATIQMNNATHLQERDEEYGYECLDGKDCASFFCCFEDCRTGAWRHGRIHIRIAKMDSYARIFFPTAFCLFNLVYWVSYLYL
# [5] = system: GABAA receptors α1, α2, α3 and α5 subtypes; conditions: α1, α2 and α3 subtypes; cited from earlier work
# mouse hippocampal slice = conditions: cited from earlier work
# rats = conditions: cited from earlier work
# receptor = conditions: rats, 3 mg/kg, cited from earlier work
# [6] = mainly in urine and in feces; cited from earlier work
# [7] = system: young and elderly subjects; conditions: cited from earlier work
# [8] = Ts65Dn mice, 5 mg/kg i.p. 30 min before each session
compound,measurement,setting,value
"Cc1cc(-c2nnc3c4ccccc4c(OCc4cn(C)nn4)nn23)no1 [α5IA, 3-(5-methylisoxazol-3-yl)-6-[(1-methyl-1,2,3-triazol-4-yl)methyloxy]-1,2,4-triazolo[3,4-a]phthalazine]",Convulsant mice rate,euploid and Ts65Dn mice [1]; Ts65Dn,4/7
same,Convulsant mice rate,euploid and Ts65Dn mice [1]; euploid,3/6
same,Time spent in the open arms of the elevated plus-maze,"euploid and Ts65Dn mice [2]; Ts65Dn mice, p<0.05",significantly reduced the time spent in open arms
same,Time spent in the open arms of the elevated plus-maze,euploid and Ts65Dn mice [2]; euploid mice,did not modify the behavior
same,anxiety levels in the elevated plus maze,"euploid and Ts65Dn mice [2]; semi-chronic, 5 mg/kg 5 times a week for 2 weeks, euploid mice, p>0.73",did not alter the anxiety levels
same,hits (reaching the platform before 90 sec),euploid and Ts65Dn mice [3]; [8],reversed after treatment
same,learning index,euploid and Ts65Dn mice [3]; [8],corrected by treatment
same,learning performance in the MWM,"euploid and Ts65Dn mice [3]; control euploid mice, 5 mg/kg",did not observe a significant promnesiant effect
same,"thigmotaxy, significance of the effect","euploid and Ts65Dn mice [3]; euploid mice (p=0.06), 5 mg/kg",just failed to reach statistical significance
same,retention performance during the probe test (24 hours),"euploid and Ts65Dn mice [3]; euploid or Ts65Dn mice, 5 mg/kg",did not significantly increase retention performance
same,performance in the cued (visible platform) version of the MWM,"euploid and Ts65Dn mice [3]; p>0.16, 5 mg/kg",did not find any effect
same,thigmotaxy (wall-seeking behavior),"euploid and Ts65Dn mice [3]; particularly in Ts65Dn mice (p<0.001), 5 mg/kg",strongly decreased
same,efficacy at the α5 subtype,[4],exhibits inverse agonism
same,"efficacy at the α1, α2 and α3 subtypes",[5],low or antagonist efficacy
same,long-term potentiation,mouse hippocampal slice,enhance long-term potentiation
same,cognitive performance in variant of the Morris water maze task,"rats; rat, in vivo",enhance cognitive performance
same,effective promnesiant dose in the MWM test,rats; rats,3 mg/kg
same,receptor occupancy,receptor; after 2 h,80%
same,receptor occupancy,receptor; after 8 h,60%
same,metabolism,[6],exclusively metabolized into the hydroxymethyl isoxazol metabolite M1
same,tolerability,[7],well tolerated
